Measured values as given in patent US12723063B2, “GIPR-agonist compounds” (Eli Lilly and Company, priority 2019, dated 2026).
*1 amine or outer side, *2 acyl side, *3 side chain or, on linkers, in order; H or OH if unused. Where a SMILES comes first, the peptide text is derived from it. Side-chain parts run from the residue outwards. [ ]: non-standard residue; d: D form. The star is where a group is joined. C20 diacid = O=C(O)CCCCCCCCCCCCCCCCCCC(=O)*; αMePhe(2-F) = C[C@](N)(Cc1ccccc1F)C(=O)O; γGlu = O=C(O)[C@H](CCC(=O)[*:2])N[*:1]; αMeF = C[C@](N)(Cc1ccccc1)C(=O)O; 4Pal = N[C@@H](Cc1ccncc1)C(=O)O; AEEA = NCCOCCOCC(=O)O; Aib = CC(C)(N)C(=O)O

What was measured:
[1] = target: T1, human glucagon receptor (GcgR) (Homo sapiens, UniProt P47871); experiment: cAMP functional assay (HTRF) in HEK293 cells in presence of 0.1% casein; format: cell-based; settings: HEK293 cells expressing human GcgR, geometric mean, read-out: hGcgR cAMP Rel EC50 nM (SEM, n)
T1 construct: expressed in transfected cells; host or cells: HEK293

[2] = target: T2, human glucose-dependent insulinotropic peptide receptor (GIPR) (Homo sapiens, UniProt P48546); experiment: as above; format: cell-based; settings: HEK293 cells expressing human GIPR, geometric mean, read-out: hGIPR cAMP Rel EC50 nM (SEM, n)
T2 construct: expressed in transfected cells; host or cells: HEK293
T2 sequence (P48546 22-466): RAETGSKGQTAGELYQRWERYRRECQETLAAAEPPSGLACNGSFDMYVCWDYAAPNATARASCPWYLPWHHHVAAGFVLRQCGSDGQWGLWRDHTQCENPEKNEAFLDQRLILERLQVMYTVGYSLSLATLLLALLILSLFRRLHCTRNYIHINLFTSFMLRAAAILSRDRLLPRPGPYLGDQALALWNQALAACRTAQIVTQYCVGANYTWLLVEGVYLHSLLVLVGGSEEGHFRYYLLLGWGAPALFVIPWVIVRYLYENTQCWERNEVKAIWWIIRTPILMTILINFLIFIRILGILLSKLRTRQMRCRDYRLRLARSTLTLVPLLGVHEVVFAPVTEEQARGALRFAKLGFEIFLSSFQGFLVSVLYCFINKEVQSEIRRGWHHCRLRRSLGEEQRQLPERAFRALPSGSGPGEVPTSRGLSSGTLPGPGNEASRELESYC

T1 sequence (P47871 26-477): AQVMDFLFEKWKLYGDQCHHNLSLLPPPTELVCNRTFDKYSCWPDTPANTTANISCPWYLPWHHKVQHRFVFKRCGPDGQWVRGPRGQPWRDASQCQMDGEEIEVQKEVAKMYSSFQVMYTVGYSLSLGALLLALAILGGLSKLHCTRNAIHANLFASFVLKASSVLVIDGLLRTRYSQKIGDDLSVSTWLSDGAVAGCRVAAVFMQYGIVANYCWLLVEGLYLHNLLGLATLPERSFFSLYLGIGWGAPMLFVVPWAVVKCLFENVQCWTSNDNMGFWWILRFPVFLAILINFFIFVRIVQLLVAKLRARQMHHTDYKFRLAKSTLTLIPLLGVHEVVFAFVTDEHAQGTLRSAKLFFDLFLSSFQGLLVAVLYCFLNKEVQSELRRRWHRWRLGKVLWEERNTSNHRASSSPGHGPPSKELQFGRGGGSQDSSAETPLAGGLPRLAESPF

| SMILES | EC50 [1] [nM] | EC50 [2] [nM] |
| --- | --- | --- |
| CC[C@H](C)[C@H](NC(=O)[C@H](CO)NC(=O)[C@H](Cc1ccc(O)cc1)NC(=O)[C@H](CC(=O)O)NC(=O)[C@H](CO)NC(=O)[C@@H](NC(=O)[C@](C)(Cc1ccccc1F)NC(=O)[C@@H](NC(=O)CNC(=O)[C@H](CCC(=O)O)NC(=O)C(C)(C)NC(=O)[C@@H](N)Cc1ccc(O)cc1)[C@@H](C)O)[C@@H](C)CC)C(=O)N[C@@H](C)C(=O)N[C@@H](CC(C)C)C(=O)N[C@@H](CC(=O)O)C(=O)N[C@@H](CCCCN)C(=O)N[C@@H](CCCCNC(=O)COCCOCCNC(=O)COCCOCCNC(=O)CC[C@H](NC(=O)CCCCCCCCCCCCCCCCCCC(=O)O)C(=O)O)C(=O)N[C@@H](Cc1c[nH]cn1)C(=O)N[C@@H](CCC(N)=O)C(=O)NC(C)(C)C(=O)N[C@@H](CC(=O)O)C(=O)N[C@@H](Cc1ccccc1)C(=O)N[C@H](C(=O)N[C@@H](CCC(=O)O)C(=O)N[C@@H](Cc1ccncc1)C(=O)N[C@@H](CC(C)C)C(=O)N[C@@H](CC(C)C)C(=O)N[C@@H](CCC(=O)O)C(=O)N[C@H](C(=O)NCC(=O)N1CCC[C@H]1C(=O)N[C@@H](CO)C(=O)N[C@@H](CO)C(=O)NCC(=O)N[C@@H](C)C(=O)N1CCC[C@H]1C(=O)N1CCC[C@H]1C(=O)N1CCC[C@H]1C(=O)N[C@@H](CO)C(N)=O)[C@@H](C)O)C(C)C [Example 38] (H-Y[Aib]EGT[αMePhe(2-F)]ISDYSIALDKK([AEEA-AEEA-γGlu-C20 diacid])HQ[Aib]DFVE[4Pal]LLETGPSSGAPPPS-NH2) | > 5000 | 0.0368 |
| CC[C@H](C)[C@H](NC(=O)[C@H](CO)NC(=O)[C@H](Cc1ccc(O)cc1)NC(=O)[C@H](CC(=O)O)NC(=O)[C@H](CO)NC(=O)[C@@H](NC(=O)[C@](C)(Cc1ccccc1F)NC(=O)[C@@H](NC(=O)CNC(=O)[C@H](CCC(=O)O)NC(=O)C(C)(C)NC(=O)[C@@H](N)Cc1ccc(O)cc1)[C@@H](C)O)[C@@H](C)CC)C(=O)N[C@@H](C)C(=O)N[C@@H](CC(C)C)C(=O)N[C@@H](CC(=O)O)C(=O)N[C@@H](CCCCN)C(=O)N[C@@H](CCCCNC(=O)COCCOCCNC(=O)COCCOCCNC(=O)CC[C@H](NC(=O)CCCCCCCCCCCCCCCCCCC(=O)O)C(=O)O)C(=O)N[C@@H](Cc1c[nH]cn1)C(=O)N[C@@H](CCC(N)=O)C(=O)NC(C)(C)C(=O)N[C@@H](CC(=O)O)C(=O)N[C@@H](Cc1ccccc1)C(=O)N[C@H](C(=O)N[C@@H](CCC(=O)O)C(=O)N[C@@H](Cc1ccncc1)C(=O)N[C@@H](CC(C)C)C(=O)N[C@@H](CC(C)C)C(=O)N[C@@H](CCC(=O)O)C(=O)NCC(=O)NCC(=O)N1CCC[C@H]1C(=O)N[C@@H](CO)C(=O)N[C@@H](CO)C(=O)NCC(=O)N[C@@H](C)C(=O)N1CCC[C@H]1C(=O)N1CCC[C@H]1C(=O)N1CCC[C@H]1C(=O)N[C@@H](CO)C(N)=O)C(C)C [Example 39] (H-Y[Aib]EGT[αMePhe(2-F)]ISDYSIALDKK([AEEA-AEEA-γGlu-C20 diacid])HQ[Aib]DFVE[4Pal]LLEGGPSSGAPPPS-NH2) | > 5000 | 0.0112 |
| CC[C@H](C)[C@H](NC(=O)[C@H](CO)NC(=O)[C@H](Cc1ccc(O)cc1)NC(=O)[C@H](CC(=O)O)NC(=O)[C@H](CO)NC(=O)[C@@H](NC(=O)[C@](C)(Cc1ccccc1F)NC(=O)[C@@H](NC(=O)CNC(=O)[C@H](CCC(=O)O)NC(=O)C(C)(C)NC(=O)[C@@H](N)Cc1ccc(O)cc1)[C@@H](C)O)[C@@H](C)CC)C(=O)N[C@@H](C)C(=O)N[C@@H](CC(C)C)C(=O)N[C@@H](CC(=O)O)C(=O)N[C@@H](CCCCN)C(=O)N[C@@H](CCCCNC(=O)COCCOCCNC(=O)COCCOCCNC(=O)CC[C@H](NC(=O)CCCCCCCCCCCCCCCCCCC(=O)O)C(=O)O)C(=O)N[C@@H](Cc1c[nH]cn1)C(=O)N[C@@H](CCC(N)=O)C(=O)NC(C)(C)C(=O)N[C@@H](CC(=O)O)C(=O)N[C@@H](Cc1ccccc1)C(=O)N[C@H](C(=O)N[C@@H](CCC(=O)O)C(=O)N[C@@H](Cc1c[nH]c2ccccc12)C(=O)N[C@@H](CC(C)C)C(=O)N[C@@H](CC(C)C)C(=O)N[C@@H](CCC(=O)O)C(=O)N[C@H](C(=O)NCC(=O)N1CCC[C@H]1C(=O)N[C@@H](CO)C(=O)N[C@@H](CO)C(=O)NCC(=O)N[C@@H](C)C(=O)N1CCC[C@H]1C(=O)N1CCC[C@H]1C(=O)N1CCC[C@H]1C(=O)N[C@@H](CO)C(N)=O)[C@@H](C)O)C(C)C [Example 40] (H-Y[Aib]EGT[αMePhe(2-F)]ISDYSIALDKK([AEEA-AEEA-γGlu-C20 diacid])HQ[Aib]DFVEWLLETGPSSGAPPPS-NH2) | > 5000 | 0.033 |
| CC[C@H](C)[C@H](NC(=O)[C@H](CO)NC(=O)[C@H](Cc1ccc(O)cc1)NC(=O)[C@H](CC(=O)O)NC(=O)[C@H](CO)NC(=O)[C@@H](NC(=O)[C@](C)(Cc1ccccc1)NC(=O)[C@@H](NC(=O)CNC(=O)[C@H](CCC(=O)O)NC(=O)C(C)(C)NC(=O)[C@@H](N)Cc1ccc(O)cc1)[C@@H](C)O)[C@@H](C)CC)C(=O)N[C@@H](C)C(=O)N[C@@H](CC(C)C)C(=O)N[C@@H](CC(=O)O)C(=O)N[C@@H](CCCCN)C(=O)N[C@@H](CCCCNC(=O)COCCOCCNC(=O)COCCOCCNC(=O)CC[C@H](NC(=O)CCCCCCCCCCCCCCCCCCC(=O)O)C(=O)O)C(=O)N[C@@H](Cc1c[nH]cn1)C(=O)N[C@@H](CCC(N)=O)C(=O)NC(C)(C)C(=O)N[C@@H](CC(=O)O)C(=O)N[C@@H](Cc1ccccc1)C(=O)N[C@H](C(=O)N[C@@H](CCC(=O)O)C(=O)N[C@@H](Cc1ccncc1)C(=O)N[C@@H](CC(C)C)C(=O)N[C@@H](CC(C)C)C(=O)N[C@@H](CCC(=O)O)C(=O)N[C@H](C(=O)NCC(=O)N1CCC[C@H]1C(=O)N[C@@H](CO)C(=O)N[C@@H](CO)C(=O)NCC(=O)N[C@@H](C)C(=O)N1CCC[C@H]1C(=O)N1CCC[C@H]1C(=O)N1CCC[C@H]1C(=O)N[C@@H](CO)C(N)=O)[C@@H](C)O)C(C)C [Example 41] (H-Y[Aib]EGT[αMeF]ISDYSIALDKK([AEEA-AEEA-γGlu-C20 diacid])HQ[Aib]DFVE[4Pal]LLETGPSSGAPPPS-NH2) | > 5000 | 0.0281 |
| CC[C@H](C)[C@H](NC(=O)[C@H](CO)NC(=O)[C@H](Cc1ccc(O)cc1)NC(=O)[C@H](CC(=O)O)NC(=O)[C@H](CO)NC(=O)[C@@H](NC(=O)[C@](C)(Cc1ccccc1)NC(=O)[C@@H](NC(=O)CNC(=O)[C@H](CCC(=O)O)NC(=O)C(C)(C)NC(=O)[C@@H](N)Cc1ccc(O)cc1)[C@@H](C)O)[C@@H](C)CC)C(=O)N[C@@H](C)C(=O)N[C@@H](CC(C)C)C(=O)N[C@@H](CC(=O)O)C(=O)N[C@@H](CCCCN)C(=O)N[C@@H](CCCCNC(=O)COCCOCCNC(=O)COCCOCCNC(=O)CC[C@H](NC(=O)CCCCCCCCCCCCCCCCCCC(=O)O)C(=O)O)C(=O)N[C@@H](Cc1c[nH]cn1)C(=O)N[C@@H](CCC(N)=O)C(=O)NC(C)(C)C(=O)N[C@@H](CC(=O)O)C(=O)N[C@@H](Cc1ccccc1)C(=O)N[C@H](C(=O)N[C@@H](CCC(=O)O)C(=O)N[C@@H](Cc1ccncc1)C(=O)N[C@@H](CC(C)C)C(=O)N[C@@H](CC(C)C)C(=O)N[C@@H](CCC(=O)O)C(=O)N[C@@H](CCC(N)=O)C(=O)NCC(=O)N1CCC[C@H]1C(=O)N[C@@H](CO)C(=O)N[C@@H](CO)C(=O)NCC(=O)N[C@@H](C)C(=O)N1CCC[C@H]1C(=O)N1CCC[C@H]1C(=O)N1CCC[C@H]1C(=O)N[C@@H](CO)C(N)=O)C(C)C [Example 42] (H-Y[Aib]EGT[αMeF]ISDYSIALDKK([AEEA-AEEA-γGlu-C20 diacid])HQ[Aib]DFVE[4Pal]LLEQGPSSGAPPPS-NH2) | > 5000 | 0.0091 |
| CC[C@H](C)[C@H](NC(=O)[C@H](CO)NC(=O)[C@H](Cc1ccc(O)cc1)NC(=O)[C@H](CC(=O)O)NC(=O)[C@H](CO)NC(=O)[C@@H](NC(=O)[C@](C)(Cc1ccccc1)NC(=O)[C@@H](NC(=O)CNC(=O)[C@H](CCC(=O)O)NC(=O)C(C)(C)NC(=O)[C@@H](N)Cc1ccc(O)cc1)[C@@H](C)O)[C@@H](C)CC)C(=O)N[C@@H](C)C(=O)N[C@@H](CC(C)C)C(=O)N[C@@H](CC(=O)O)C(=O)N[C@@H](CCCCN)C(=O)N[C@@H](CCCCNC(=O)COCCOCCNC(=O)COCCOCCNC(=O)CC[C@H](NC(=O)CCCCCCCCCCCCCCCCCCC(=O)O)C(=O)O)C(=O)N[C@@H](Cc1c[nH]cn1)C(=O)N[C@@H](CCC(N)=O)C(=O)NC(C)(C)C(=O)N[C@@H](CC(=O)O)C(=O)N[C@@H](Cc1ccccc1)C(=O)N[C@H](C(=O)N[C@@H](CCC(=O)O)C(=O)N[C@@H](Cc1ccncc1)C(=O)N[C@@H](CC(C)C)C(=O)N[C@@H](CC(C)C)C(=O)N[C@@H](CCC(=O)O)C(=O)N[C@@H](C)C(=O)NCC(=O)N1CCC[C@H]1C(=O)N[C@@H](CO)C(=O)N[C@@H](CO)C(=O)NCC(=O)N[C@@H](C)C(=O)N1CCC[C@H]1C(=O)N1CCC[C@H]1C(=O)N1CCC[C@H]1C(=O)N[C@@H](CO)C(N)=O)C(C)C [Example 43] (H-Y[Aib]EGT[αMeF]ISDYSIALDKK([AEEA-AEEA-γGlu-C20 diacid])HQ[Aib]DFVE[4Pal]LLEAGPSSGAPPPS-NH2) | > 5000 | 0.0154 |
